From ChEMBL document CHEMBL5465560, “Selectivity Literature for EUbOPEN Chemogenomic Library” (2024)
Blank lines part the entries; values can stand above or below the molecule they belong to.

Tests used:
[1] = biological target: T1, Serine/threonine-protein kinase 36 (Homo sapiens) (UniProt Q9NRP7); settings: at 10 µM
T1 sequence (whole entry): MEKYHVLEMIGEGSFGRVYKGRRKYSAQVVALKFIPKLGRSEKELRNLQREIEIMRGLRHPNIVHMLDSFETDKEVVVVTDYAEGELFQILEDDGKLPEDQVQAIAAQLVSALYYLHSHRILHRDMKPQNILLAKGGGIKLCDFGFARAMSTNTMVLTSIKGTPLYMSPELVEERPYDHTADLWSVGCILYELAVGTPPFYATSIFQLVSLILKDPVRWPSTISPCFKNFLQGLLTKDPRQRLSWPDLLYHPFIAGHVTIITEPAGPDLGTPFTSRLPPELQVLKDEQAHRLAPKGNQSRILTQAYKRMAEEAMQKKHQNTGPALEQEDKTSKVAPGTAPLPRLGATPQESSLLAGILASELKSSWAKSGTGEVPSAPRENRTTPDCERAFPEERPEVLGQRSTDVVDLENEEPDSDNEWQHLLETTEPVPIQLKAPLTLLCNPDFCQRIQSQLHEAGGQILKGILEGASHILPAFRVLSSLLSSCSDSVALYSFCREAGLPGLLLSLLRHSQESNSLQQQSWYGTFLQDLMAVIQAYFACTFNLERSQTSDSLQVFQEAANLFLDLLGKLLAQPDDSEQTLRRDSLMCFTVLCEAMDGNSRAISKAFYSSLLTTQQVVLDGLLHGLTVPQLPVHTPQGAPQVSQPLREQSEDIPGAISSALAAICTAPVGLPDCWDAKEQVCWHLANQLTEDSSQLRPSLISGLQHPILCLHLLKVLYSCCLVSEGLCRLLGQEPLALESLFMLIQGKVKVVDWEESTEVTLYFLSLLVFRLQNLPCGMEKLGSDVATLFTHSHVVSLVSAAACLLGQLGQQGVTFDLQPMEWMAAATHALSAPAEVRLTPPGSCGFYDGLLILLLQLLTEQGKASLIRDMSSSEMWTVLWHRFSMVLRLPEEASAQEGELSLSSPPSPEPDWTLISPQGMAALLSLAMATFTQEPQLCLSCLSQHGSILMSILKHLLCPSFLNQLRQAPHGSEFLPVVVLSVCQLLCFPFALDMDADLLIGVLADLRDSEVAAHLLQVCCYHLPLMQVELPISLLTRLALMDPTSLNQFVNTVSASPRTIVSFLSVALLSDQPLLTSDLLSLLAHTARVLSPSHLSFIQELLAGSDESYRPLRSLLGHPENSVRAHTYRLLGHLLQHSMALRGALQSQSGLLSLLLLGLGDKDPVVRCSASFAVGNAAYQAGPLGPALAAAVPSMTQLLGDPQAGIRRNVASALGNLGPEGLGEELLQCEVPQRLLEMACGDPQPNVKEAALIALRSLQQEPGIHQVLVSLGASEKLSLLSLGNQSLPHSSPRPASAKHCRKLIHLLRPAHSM

[2] = biological target: 5-hydroxytryptamine receptor 1D (Homo sapiens) (UniProt P28221); assay: Selectivity interaction (GPCR panel (PDSP screen)) EUB0001079a HTR1D; settings: at 10 µM
Sequence of 5-hydroxytryptamine receptor 1D (Homo sapiens) (P28221 whole entry): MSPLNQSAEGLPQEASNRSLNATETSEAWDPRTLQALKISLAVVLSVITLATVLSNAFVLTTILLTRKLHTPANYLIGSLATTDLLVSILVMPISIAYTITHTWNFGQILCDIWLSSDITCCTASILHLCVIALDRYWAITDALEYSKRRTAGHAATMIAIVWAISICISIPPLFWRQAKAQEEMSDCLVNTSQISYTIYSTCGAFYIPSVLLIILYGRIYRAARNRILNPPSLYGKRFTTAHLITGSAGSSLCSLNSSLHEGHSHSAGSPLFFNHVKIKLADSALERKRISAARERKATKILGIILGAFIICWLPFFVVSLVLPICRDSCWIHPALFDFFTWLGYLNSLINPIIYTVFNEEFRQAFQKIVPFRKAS

[3] = biological target: Receptor tyrosine-protein kinase erbB-2 (Homo sapiens, UniProt P04626); assay: Selectivity interaction (SelectScreen profiling (Invitrogen)) EUB0000607a ERBB2; settings: at 2 µM
Sequence of Receptor tyrosine-protein kinase erbB-2 (P04626 whole entry): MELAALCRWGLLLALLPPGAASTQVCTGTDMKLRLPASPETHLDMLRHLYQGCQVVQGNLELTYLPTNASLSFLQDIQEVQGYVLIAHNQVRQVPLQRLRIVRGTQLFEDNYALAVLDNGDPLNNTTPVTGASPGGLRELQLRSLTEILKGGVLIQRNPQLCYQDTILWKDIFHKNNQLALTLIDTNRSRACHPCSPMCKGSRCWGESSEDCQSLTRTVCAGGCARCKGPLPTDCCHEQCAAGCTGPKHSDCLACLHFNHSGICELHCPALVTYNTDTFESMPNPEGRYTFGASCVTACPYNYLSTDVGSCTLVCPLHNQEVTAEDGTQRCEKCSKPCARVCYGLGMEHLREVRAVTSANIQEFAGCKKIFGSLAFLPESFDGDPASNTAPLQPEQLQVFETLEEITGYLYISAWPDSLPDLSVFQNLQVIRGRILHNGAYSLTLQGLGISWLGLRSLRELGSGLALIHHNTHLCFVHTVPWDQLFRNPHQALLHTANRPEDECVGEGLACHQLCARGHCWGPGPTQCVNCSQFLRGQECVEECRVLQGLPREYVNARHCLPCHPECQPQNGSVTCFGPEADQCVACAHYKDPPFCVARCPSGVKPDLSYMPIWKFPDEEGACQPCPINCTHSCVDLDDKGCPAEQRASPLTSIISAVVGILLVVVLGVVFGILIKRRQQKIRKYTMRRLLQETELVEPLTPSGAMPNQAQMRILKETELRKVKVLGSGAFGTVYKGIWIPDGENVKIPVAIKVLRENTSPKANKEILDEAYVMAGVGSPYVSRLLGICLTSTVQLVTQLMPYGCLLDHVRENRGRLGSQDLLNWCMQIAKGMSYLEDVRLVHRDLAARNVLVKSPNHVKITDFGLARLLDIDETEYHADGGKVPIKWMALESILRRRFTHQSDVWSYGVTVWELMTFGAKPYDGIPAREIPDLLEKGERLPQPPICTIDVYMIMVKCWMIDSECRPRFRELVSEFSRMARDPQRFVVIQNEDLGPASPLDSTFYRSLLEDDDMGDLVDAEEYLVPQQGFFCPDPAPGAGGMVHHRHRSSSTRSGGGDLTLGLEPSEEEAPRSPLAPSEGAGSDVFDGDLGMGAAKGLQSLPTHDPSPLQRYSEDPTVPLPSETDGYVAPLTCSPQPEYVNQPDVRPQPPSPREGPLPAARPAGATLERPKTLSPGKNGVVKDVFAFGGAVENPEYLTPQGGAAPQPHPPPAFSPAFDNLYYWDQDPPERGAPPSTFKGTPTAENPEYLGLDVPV

[4] = biological target: Ribosomal protein S6 kinase beta-1 (Homo sapiens, UniProt P23443); assay: Selectivity interaction (KinomeScan (DiscoverX)) EUB0000607a RPS6KB1; settings: at 10 µM
Sequence of Ribosomal protein S6 kinase beta-1 (P23443 whole entry, looked up): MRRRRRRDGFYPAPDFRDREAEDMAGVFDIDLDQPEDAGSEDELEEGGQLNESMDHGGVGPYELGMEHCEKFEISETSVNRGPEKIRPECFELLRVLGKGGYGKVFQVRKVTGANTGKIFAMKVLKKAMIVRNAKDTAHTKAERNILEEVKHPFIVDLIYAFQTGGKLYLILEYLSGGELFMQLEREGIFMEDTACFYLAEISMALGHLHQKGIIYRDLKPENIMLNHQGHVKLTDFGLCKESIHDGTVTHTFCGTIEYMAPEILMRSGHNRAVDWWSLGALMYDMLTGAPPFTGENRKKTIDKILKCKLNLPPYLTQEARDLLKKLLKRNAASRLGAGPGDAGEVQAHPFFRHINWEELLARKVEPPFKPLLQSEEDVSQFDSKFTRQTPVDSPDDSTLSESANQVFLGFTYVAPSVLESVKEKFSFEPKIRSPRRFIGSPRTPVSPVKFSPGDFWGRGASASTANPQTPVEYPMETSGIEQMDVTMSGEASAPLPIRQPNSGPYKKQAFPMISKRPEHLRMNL

[5] = biological target: Mitogen-activated protein kinase kinase kinase kinase 1 (Homo sapiens) (UniProt Q92918); assay: Selectivity interaction (ActivX KiNativ screen (ex vivo kinase selectivity in human PBMCs)) EUB0001619a MAP4K1; format: cell-based; settings: PBMC, at 1 µM
[6] = biological target: Serine/threonine-protein kinase pim-3 (Homo sapiens) (UniProt Q86V86); assay: Selectivity interaction (KinomeScan (DiscoverX)) EUB0000045b PIM3
[7] = biological target: T2, Dual specificity tyrosine-phosphorylation-regulated kinase 2 (Homo sapiens) (UniProt Q92630); assay: Selectivity interaction (KinomeScan (DiscoverX)) EUB0000092b DYRK2; settings: at 10 µM
T2 sequence (whole entry): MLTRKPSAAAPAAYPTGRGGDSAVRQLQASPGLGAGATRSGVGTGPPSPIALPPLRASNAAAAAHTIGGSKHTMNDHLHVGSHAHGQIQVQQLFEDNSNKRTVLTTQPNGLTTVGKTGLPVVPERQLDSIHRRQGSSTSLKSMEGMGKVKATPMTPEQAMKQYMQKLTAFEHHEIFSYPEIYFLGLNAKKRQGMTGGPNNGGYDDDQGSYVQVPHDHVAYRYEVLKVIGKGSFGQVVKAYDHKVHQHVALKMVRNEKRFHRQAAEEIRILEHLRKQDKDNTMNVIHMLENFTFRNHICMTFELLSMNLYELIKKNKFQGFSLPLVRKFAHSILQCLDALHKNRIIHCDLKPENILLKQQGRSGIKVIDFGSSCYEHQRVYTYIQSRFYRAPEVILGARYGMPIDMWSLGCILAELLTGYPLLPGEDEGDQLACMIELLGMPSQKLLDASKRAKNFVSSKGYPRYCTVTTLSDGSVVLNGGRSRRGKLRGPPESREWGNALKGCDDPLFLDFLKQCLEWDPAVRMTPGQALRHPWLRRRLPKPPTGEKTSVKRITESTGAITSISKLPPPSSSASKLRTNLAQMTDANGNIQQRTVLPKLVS

[8] = biological target: Serine/threonine-protein kinase MARK2 (Homo sapiens) (UniProt Q7KZI7); assay: Selectivity interaction (Kinase panel (Z-LYTE Assay)) EUB0001632a MARK2; settings: at 10 µM
Sequence of Serine/threonine-protein kinase MARK2 (Homo sapiens) (Q7KZI7 whole entry): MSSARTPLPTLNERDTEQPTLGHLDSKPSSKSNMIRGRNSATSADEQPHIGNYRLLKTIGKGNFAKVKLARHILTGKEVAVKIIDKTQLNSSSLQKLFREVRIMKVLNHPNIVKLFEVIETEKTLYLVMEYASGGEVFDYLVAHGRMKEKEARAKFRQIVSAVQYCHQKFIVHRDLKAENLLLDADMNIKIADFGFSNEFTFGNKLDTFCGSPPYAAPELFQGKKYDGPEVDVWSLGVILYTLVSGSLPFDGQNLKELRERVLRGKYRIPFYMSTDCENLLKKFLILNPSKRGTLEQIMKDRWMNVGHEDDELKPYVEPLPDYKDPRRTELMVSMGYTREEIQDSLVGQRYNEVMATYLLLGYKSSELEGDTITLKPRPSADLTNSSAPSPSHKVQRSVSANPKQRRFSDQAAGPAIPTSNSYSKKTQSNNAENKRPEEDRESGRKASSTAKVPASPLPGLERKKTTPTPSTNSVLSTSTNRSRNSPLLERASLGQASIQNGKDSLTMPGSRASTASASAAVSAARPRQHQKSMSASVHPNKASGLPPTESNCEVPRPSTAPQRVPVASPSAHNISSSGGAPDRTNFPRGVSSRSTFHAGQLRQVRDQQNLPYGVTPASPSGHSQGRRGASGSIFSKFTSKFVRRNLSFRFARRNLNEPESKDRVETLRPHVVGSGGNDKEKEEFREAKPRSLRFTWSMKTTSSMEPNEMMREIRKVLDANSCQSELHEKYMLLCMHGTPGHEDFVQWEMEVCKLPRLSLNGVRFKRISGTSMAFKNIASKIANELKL

[9] = biological target: Vascular endothelial growth factor receptor 3 (Homo sapiens, UniProt P35916); assay: Selectivity interaction (Kinase panel (Z-LYTE Assay)) EUB0001632a FLT4; settings: at 10 µM
Sequence of Vascular endothelial growth factor receptor 3 (P35916 whole entry): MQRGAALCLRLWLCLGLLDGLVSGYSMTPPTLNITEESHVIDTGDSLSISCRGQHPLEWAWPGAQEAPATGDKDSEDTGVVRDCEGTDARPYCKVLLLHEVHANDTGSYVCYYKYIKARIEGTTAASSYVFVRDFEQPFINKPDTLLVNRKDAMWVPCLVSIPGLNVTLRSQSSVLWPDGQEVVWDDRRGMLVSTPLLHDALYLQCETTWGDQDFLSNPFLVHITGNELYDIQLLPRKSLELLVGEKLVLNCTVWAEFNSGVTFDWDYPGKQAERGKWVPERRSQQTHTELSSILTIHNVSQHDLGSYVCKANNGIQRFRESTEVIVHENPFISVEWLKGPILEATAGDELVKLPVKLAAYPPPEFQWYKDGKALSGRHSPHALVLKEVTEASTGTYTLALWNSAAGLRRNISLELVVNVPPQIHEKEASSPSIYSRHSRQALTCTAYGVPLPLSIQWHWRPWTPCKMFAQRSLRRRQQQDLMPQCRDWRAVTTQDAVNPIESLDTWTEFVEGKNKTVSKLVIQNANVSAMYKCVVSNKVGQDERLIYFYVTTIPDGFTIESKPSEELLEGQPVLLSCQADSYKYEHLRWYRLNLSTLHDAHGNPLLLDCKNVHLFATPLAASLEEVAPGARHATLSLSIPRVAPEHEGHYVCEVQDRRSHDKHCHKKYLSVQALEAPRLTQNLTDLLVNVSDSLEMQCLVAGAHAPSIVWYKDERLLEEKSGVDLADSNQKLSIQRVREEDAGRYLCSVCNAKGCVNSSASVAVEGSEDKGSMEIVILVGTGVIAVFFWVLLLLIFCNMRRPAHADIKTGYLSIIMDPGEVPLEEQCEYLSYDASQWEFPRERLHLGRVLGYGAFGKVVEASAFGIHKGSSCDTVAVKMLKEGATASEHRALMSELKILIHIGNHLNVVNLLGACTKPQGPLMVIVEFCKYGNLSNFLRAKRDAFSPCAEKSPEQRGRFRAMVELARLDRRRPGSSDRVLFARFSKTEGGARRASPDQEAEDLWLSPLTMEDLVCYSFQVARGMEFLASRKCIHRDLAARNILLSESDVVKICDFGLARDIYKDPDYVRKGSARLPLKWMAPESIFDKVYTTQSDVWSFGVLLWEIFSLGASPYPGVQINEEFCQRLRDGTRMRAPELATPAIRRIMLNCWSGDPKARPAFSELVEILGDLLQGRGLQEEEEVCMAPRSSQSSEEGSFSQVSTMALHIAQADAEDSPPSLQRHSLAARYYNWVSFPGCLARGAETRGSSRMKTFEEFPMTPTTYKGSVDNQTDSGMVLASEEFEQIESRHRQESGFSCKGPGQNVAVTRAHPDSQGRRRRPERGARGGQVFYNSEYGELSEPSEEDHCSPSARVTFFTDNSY

% of control [1]: 100%
Compound: CCN(CC)CCCCNc1ncc2cc(-c3cc(OC)cc(OC)c3)c(NC(=O)NC(C)(C)C)nc2n1

Compound: Nc1cnc(N2CCc3cc(S(=O)(=O)Nc4c(F)cc(Cl)cc4F)cc(N4CCCC4=O)c32)nc1 [TP-020n]
% of inhibition [2]: 9.24%

Compound: CNC(=O)Nc1ccc(-c2nc(N3CC4CCC(C3)O4)c3cnn(C4CCC5(CC4)OCCO5)c3n2)cc1
% of inhibition [3]: 0% | % of control [4]: 100%

Compound: N#Cc1cccc(-c2c[nH]c3ncnc(N4CCOCC4)c23)c1
% of inhibition [5]: 7%

Compound: C=CC(=O)Nc1cc(-n2c(=O)ccc3cnc4ccc(-c5ccc(NS(C)(=O)=O)cc5)cc4c32)ccc1C
% of control ([6]; at 1 µM): 83% | % of control ([6]; at 10 µM): 82%

Compound: CCC(=O)N1CCN(c2ccc(-n3c(=O)ccc4cnc5ccc(-c6cnc7ccccc7c6)cc5c43)cc2C(F)(F)F)CC1
% of control [7]: 86%

% of control [8]: 5.56% | % of control [9]: 11.7%
Compound: Cn1cc(-n2cnc3c(NCc4nc5cc(Cl)c(Cl)cc5[nH]4)nc(N4CCOCC4)nc32)cn1
